Data on 15 compounds can be found in patent US6423725B1 (dated 2002).

Where a name gives a salt, the structure may show the parent alone.

Consider `O=c1[nH]c2ccccc2n1C1CCN(C2(c3ccccc3)CCCCCCCCCCC2)CC1` (as salt: hydrochloride), for which the melting point (as a rule, the temperature of the solid-liquid transition) is 251 °C.

Regarding `CC1(C)CCC(c2ccccc2)(N2CCC(n3c(=O)[nH]c4ccccc43)CC2)CC1` (as salt: hydrochloride), the melting point stood at 256 °C.

`O=C(c1ccccc1)c1ccc2c(c1)[nH]c(=O)n2C1CCN(C2(c3ccccc3)CCCCCC2)CC1` (as salt: hydrochloride) showed a melting point of 118 to 122 °C.

As for `O=c1[nH]c2ccccc2n1C1CCN(C2(c3ccc(F)cc3)CCCCCC2)CC1` (as salt: hydrochloride), the melting point lay within 185 to 192 °C.

Consider `CNCCn1c(=O)n(C2CCN(C3(c4ccccc4)CCCCCC3)CC2)c2ccccc21` (as salt: hydrochloride), for which the melting point stood at 217 °C.

Turning to `O=c1[nH]c2ccccc2n1C1CCN(C2(c3ccccc3)CCCCCCCCCC2)CC1` (as salt: hydrochloride), the melting point was 196 to 202 °C.

The compound `CC(C)(C)C1CCC(c2ccccc2)(N2CCC(n3c(=O)[nH]c4ccccc43)CC2)CC1` (stereo not drawn) (as salt: hydrochloride) gave a melting point of 218 to 219 °C.

In turn, `COc1ccccc1C1(N2CCC(n3c(=O)[nH]c4ccccc43)CC2)CCCCCC1` (as salt: hydrochloride) came in with a melting point of 167 to 173 °C.

For `O=c1[nH]c2ccccc2n1C1CCN(C2(c3ccccc3)CCCCCCCC2)CC1` (as salt: hydrochloride), the melting point was 187 °C.

`O=c1[nH]c2ccccc2n1C1CCN(C2(c3ccccc3)CCCCCCCCC2)CC1` (as salt: hydrochloride) returned a melting point of 217 °C.

Take `COc1ccc(C2(N3CCC(n4c(=O)[nH]c5ccccc54)CC3)CCCCC2)cc1` (as salt: hydrochloride): the melting point is 193 to 197 °C.

As to `COc1cccc(C2(N3CCC(n4c(=O)[nH]c5ccccc54)CC3)CCCCCC2)c1` (as salt: hydrochloride), the melting point was 216 to 218 °C.

Turning to `O=c1[nH]c2ccccc2n1C1CCN(C2(c3cccc(F)c3)CCCCCC2)CC1` (as salt: hydrochloride), the melting point was 196 to 199 °C.

As for `CCCC1(N2CCC(n3c(=O)[nH]c4ccccc43)CC2)CCC2(CCCCC2)CC1` (as salt: hydrochloride), the melting point is 240 to 247 °C.

Turning to `O=c1[nH]c2ccccc2n1C1CCN(C2(c3ccccc3)CCCCCCC2)CC1` (as salt: hydrochloride), the melting point worked out at 196 °C.
